The source of these data is patent US7053041B1, “Methods and compositions useful for inhibition of αvβ5mediated angiogenesis” (The Scripps Research Institute, priority 1996, dated 2006).

Holding throughout (type): in vivo
Assay [1] concerns bFGF-induced angiogenesis. Description: chick CAM assay, bFGF-induced angiogenesis, intravenous inhibitors. The procedure:
(§1) Ten day old chick embryos were obtained from McIntyre Poultry (Lakeside, Calif.) and incubated at 37C with 60% humidity. A small hole was made through the shell at the end of the egg directly over the air sac with the use of a small crafts drill (Dremel, Division of Emerson Electric Co., Racine, Wis.). A second hole was drilled on the broad side of the egg in a region devoid of embryonic blood vessels determined previously by candling the egg. […] A 1.0 centimeter (cm)×1.0 cm square window was cut through the shell over the dropped CAM with the use of a small model grinding wheel (Dremel). The small window allowed direct access to the underlying CAM.
(§2) Angiogenesis was induced by placing a 5 millimeter (mm)×5 mm Whatman filter disk (Whatman Filter paper No. 1) saturated with Hanks Balanced Salt Solution (HBSS, GIBCO, Grand Island, N.Y.) or HBSS containing preselected cytokines at a preselected concentration, i.e. one to test the effect on angiogenesis, on the CAM of a 10 day chick embryo in a region devoid of blood vessels and the windows were later sealed with tape. Angiogenesis was monitored by photomicroscopy after 72 hours. CAMs were snap frozen then 6 μm cryostat sections were fixed with acetone and stained by immunofluorescence as described in Example 2B and 2C with 10 μg/ml of selected anti-integrin antibodies, including those directed against αvβ5 as described in Example 1.
(§3) Angiogenesis was first induced on 10 day old chick embryos by application of growth factor-saturated filter disks. Specifically, in the first assays, angiogenesis was induced by exposure to either bFGF or VEGF, each at a concentration of 150 ng/ml.
(§4) For application of growth factors, during the candling procedures, prominent blood vessels were selected and marks were made on the egg shell to indicate their positions. The holes were drilled in the shell, the CAMs were dropped and growth factor-saturated filter papers were then separately placed on the CAMs as described above. The windows were sealed with sterile tape and the embryos were replaced in the incubator.
(§5) Twenty four hours later, a second small window was carefully cut on the lateral side of the egg shell directly over prominent blood vessels selected previously. The outer egg shell was carefully removed leaving the embryonic membranes intact. The shell membrane was made transparent with a small drop of mineral oil (Perkin-Elmer Corp, Norwalk, Conn.) which allowed the blood vessels to be visualized easily. Then, phosphate buffered saline (PBS), 75 μg of purified sterile anti-integrin antibodies or 75 μg of synthetic peptides (cyclic peptide RGDfV, SEQ ID NO 4 and control cyclic peptide RADfV, SEQ ID NO 5) in PBS were injected into blood vessels apparent on the growth factor-induced CAMs. The windows were sealed with tape and the embryos were allowed to incubate until 72 hours.
The filter discs and representative surrounding CAM tissues were photographed in a stereomicroscope (FIGS. 3A–3F and FIGS. 5A–5F) and the mean angiogenic index +/− the standard error was determined for 12 CAMs per condition (FIGS. 4A–4B and FIGS. 6A–6B). Angiogenesis was scored for each embryo in a double blind manner by analyzing the number and extent of branching of blood vessels within the area of each disc. The scores ranged from 1 (low) to 4 (high) and the angiogenesis index was determined by subtracting a background of 1 from all data. […]

The test system of assay [2] is angiogenesis induced by PMA. Description: chick CAM assay, PMA-induced angiogenesis. As to conditions: PMA 20 ng/ml; antibodies 75 μg per embryo, calphostin C 100 nM. The method, then:
(§6) The above growth factors (cytokines), including bFGF and VEGF, were separately applied at a concentration of 1.0 μg/ml to the 10 day old CAM model as previously described. PMA was used at a concentration of 20 ng/ml.
(§7) After 24 hours after growth factor treatment, the antibodies, LM609 and P1F6, or the protein kinase C (PKC) inhibitor, calphostin C, were separately provided to the CAM model, either by a single intravascular dose as described above or by topical administration as described below in the next example. For intravascular injections over the next 3 day consecutive period, the antibodies were used at a concentration of 75 μg per embryo and the calphostin C was at a dosage of 100 nM.
(§8) On day 13, filter discs and associated CAM tissue were dissected and analyzed for angiogenesis with a stereo microscope. Angiogenesis was scored in a double blind manner by analyzing the number and extent of branching of the blood vessels within the area of the discs. The scores ranged from low (1) to high (4). The angiogenesis index was determined by subtracting a background score of 1 from all data. Experiments were repeated 2–4 times with 5–6 embryos per condition.

Assay [3] has as its system angiogenesis induced by TGF-α. The experiment in a line: chick CAM assay, TGF-α-induced angiogenesis. Particulars: TGF-α 1.0 μg/ml; antibodies 75 μg per embryo, calphostin C 100 nM. The procedure: as §6, §7, §8
In assay [4] the test system is VEGF-induced angiogenesis. The experiment in a line: chick CAM assay, VEGF-induced angiogenesis, intravenous inhibitors. The procedure:
as §1, §2, §3, §4, §5
The filter discs and representative surrounding CAM tissues were photographed in a stereomicroscope (FIGS. 3A–3F and FIGS. 5A–5F) and the mean angiogenic index +/− the standard error was determined for 12 CAMs per condition (FIGS. 4A–4B and FIGS. 6A–6B). Angiogenesis was scored for each embryo in a double blind manner by analyzing the number and extent of branching of blood vessels within the area of each disc. The scores ranged from 1 (low) to 4 (high) and the angiogenesis index was determined by subtracting a background of 1 from all data.
In a further assay performed in the CAM model having VEGF-induced angiogenesis, 2 μg of peptides 85189 (SEQ ID NO 9) and the inert salt counterpart 121974 were separately intravenously injected as previously described. The effect of the peptides was assessed in comparison to that of control peptide 69601 (SEQ ID NO 5) and to untreated (labeled as NT) preparations.
The effect of the peptides of VEGF-induced angiogenesis is measured through a determination of the number of blood vessel branch points. […]

Assay [5] has as its system TNF-α mediated angiogenesis. Description: chick CAM assay, TNF-α-induced angiogenesis. Particulars: TNF-α 1.0 μg/ml; antibodies 75 μg per embryo, calphostin C 100 nM. The method, then:
as §6, §7, §8

For a further assay, the system named is retinal vasculogenesis. Description: newborn mouse model of retinal angiogenesis. The method, then:
For the model, newborn mice were injected subcutaneously twice daily for four days starting from day 0 with the cyclic peptide RGDfV (SEQ ID NO 4) (also referred to as peptide 203) or the control peptide RADfV (SEQ ID NO 5). On postnatal day five, globes were removed and fixed in 4.0% paraformaldehyde (PFA) at room temperature.
To quantitate mouse retinal angiogenesis, the distance from the optic nerve head to the most distal point of a single vessel selected in each of six equal sectors around a twelve hour clock was measured. The mean distance was calculated and averaged with similar data obtained from an entire litter. To measure the total volume of retinal blood vessels, the entire specimen was scanned in 2.0 μm optical sections and stored digitally. The “seed” function in Bio-Rad's Lasersharp software was then used to threshold and count cubic pixels in each section. A macro was written to sum the volume of all sections and determine the value for all vascular structures.

Consider calphostin C [reference compound], for which the “effect on CAM angiogenesis in response to bFGF (angiogenesis index)” value in assay [1] (bFGF 1.0 μg/ml, antibodies 75 μg per embryo, calphostin C 100 nM) was “minimal effects”. In assay [2], the “effect on CAM angiogenesis induced by PMA (angiogenesis index)” value is “blocked angiogenesis”. The “effect on CAM angiogenesis induced by TGF-α (angiogenesis index)” value in assay [3] is reported as “blocked angiogenesis”. Moreover, the “effect on CAM angiogenesis induced by VEGF (angiogenesis index)” value in assay [4] (VEGF 1.0 μg/ml, antibodies 75 μg per embryo, calphostin C 100 nM) was “blocked angiogenesis”. In addition, in assay [5], the “effect on CAM angiogenesis in response to TNF-α (angiogenesis index)” value is “minimal effects”.
As to “cyclo(Arg-Gly-Asp-D-Phe-Val) [compound 66203]”, the “inhibition of bFGF-induced CAM angiogenesis” value in assay [1] (bFGF 150 ng/ml, 75 μg antibody or peptide intravenously, 72 hours) is listed as “abolished angiogenesis”. Further, the “volume of retinal blood vessels compared with untreated newborn mice” value with retinal vasculogenesis (five-day old treated animals) is “indistinguishable”. Besides, the “inhibition of retinal vasculogenesis compared to untreated counterparts” value in the assay with retinal vasculogenesis (newborn mice, s.c. twice daily for four days) is recorded as about 100%. In addition, the “mean volume of retinal vessels” value in the assay with retinal vasculogenesis (postnatal day five) is 3.6×10^6 μm^3. Moreover, the “inhibition of retinal vasculogenesis relative to control peptide (vessel growth in two dimensions)” value in the assay on retinal vasculogenesis (s.c. twice daily for four days from day 0, postnatal day five, N=9) was 44%. Also, the “reduction in retinal vascular volume compared to controls” value with retinal vasculogenesis (three dimensional analysis, postnatal day five) is 78%. In the assay with retinal vasculogenesis (two dimensions), the “difference in vessel growth between untreated newborn mice and treated five-day old mice” value is on record as “No statistical difference”. The “inhibition of VEGF-induced CAM angiogenesis” value in assay [4] (VEGF 150 ng/ml, 75 μg antibody or peptide intravenously, 72 hours) is “abolished angiogenesis”.
